Measurements reported in patent publication US9567318B2, “Substituted pyrimidine compounds and uses thereof” (Memorial Sloan-Kettering Cancer Center, priority 2009, dated 2017).

How the values were obtained:
[1] = test system: SKBr3 HER2+ breast cancer cells; assay: Growth Inhibition Assay (Alamar blue), SKBr3; format: cell-based, human
Protocol: (§1) The IC50 values listed for some of these compounds illustrate the antiproliferative effects of the subject compounds and were obtained using the Growth Inhibition assays described herein.
(§2) Growth Inhibition Assay. Antiproliferative effects of inhibitors were evaluated using the dye Alamar blue. This reagent offers a rapid objective measure of cell viability in cell culture, and it uses the indicator dye resazurin to measure the metabolic capacity of cells, an indicator of cell viability. Briefly, cells were plated on Costar 96-well plates. For attached cells (such as SKBr3, MDA-MB-468, LNCaP, MRCS), 8,000 cells/well were used. For suspension cells (such as MOLM-13, Kasumi-1, OCI-Ly7, PBL), 20,000 cells/well were plated. Cells were allowed to incubate for 24 h at 37° C. before drug treatment. Drugs were added in triplicates at the indicated concentrations, and the plate was incubated for 72 h. Alamar Blue (440 μM) was added, and the plate read 6 h later using the Analyst GT (Fluorescence intensity mode, excitation 530 nm, emission 580 nm, with 560=dichroic mirror). Results were analyzed using the Softmax Pro software. The percentage cell growth inhibition was calculated by comparing fluorescence readings obtained from treated versus control cells, accounting for initial cell population (time zero).

[2] = test system: Kasumi-1 acute myeloid leukemia cells; assay: Growth Inhibition Assay (Alamar blue), Kasumi-1; format: cell-based, human; details: Kasumi-1 cells
Protocol: as §1, §2

| IC50 ([1]; Homo sapiens, SK-BR-3, 72 h) [µM] | IC50 ([2]; Homo sapiens, Kasumi 1, 72 h) [µM] | IC50 ([2]; 72 h) [µM] | IC50 ([1]; 72 h) [µM] | SMILES |
| --- | --- | --- | --- | --- |
| > 100 | – | – | – | COc1nc(N2CC[N+](C)([O-])CC2)nc(OC)c1Sc1nccc(NC(C)=O)n1 [YK75, 4-(5-(4-acetamidopyrimidin-2-ylthio)-4,6-dimethoxypyrimidin-2-yl)-1-methylpiperazine 1-oxide] |
| 31.1 | > 100 | – | – | C=CC(=O)Nc1ccnc(Sc2c(OC)nc(N3CC[N+](C)([O-])CC3)nc2OC)n1 [YK80, 4-(5-(4-acrylamidopyrimidin-2-ylthio)-4,6-dimethoxypyrimidin-2-yl)-1-methylpiperazine 1-oxide] |
| 99.5 | 35.2 | – | – | CCC(=O)Nc1cccc(Sc2c(OC)nc(N)nc2OC)c1 [YK140, N-(3-(2-amino-4,6-dimethoxypyrimidin-5-ylthio)phenyl)propionamide] |
| 38.9 | – | – | – | CCC(=O)Nc1cccc(Sc2c(OC)nc(N3CCN(CCOCCOCCOCCO)CC3)nc2OC)c1 [YK141, N-(3-(2-(4-(2-(2-(2-(2-hydroxyethoxy)ethoxy)ethoxy)ethyl)piperazin-1-yl)-4,6-dimethoxypyrimidin-5-ylthio)phenyl)propionamide] |
| > 100 | > 100 | – | – | CCC(=O)Nc1ccnc(Sc2c(C)nc(N3CCOCC3)nc2C)n1 [YK118, N-(2-(4,6-dimethyl-2-morpholinopyrimidin-5-ylthio)pyrimidin-4-yl)propionamide] |
| 2.4 | 22.5 | – | – | C=CC(=O)Nc1ccnc(Sc2c(OC)nc(OC)nc2OC)n1 [YK76, N-(2-(2,4,6-trimethoxypyrimidin-5-ylthio)pyrimidin-4-yl)acrylamide] |
| 1.2 | 0.8 | – | – | C=CC(=O)Nc1ccnc(Sc2c(OC)nc(N3CCN(C)CC3)nc2OC)n1 [YK71, N-(2-(4,6-dimethoxy-2-(4-methylpiperazin-1-yl)pyrimidin-5-ylthio)pyrimidin-4-yl)acrylamide] |
| > 100 | 58.1 | – | – | COCC(=O)Nc1ccnc(Sc2c(C)nc(N3CCOCC3)nc2C)n1 [YK123, N-(2-(4,6-dimethyl-2-morpholinopyrimidin-5-ylthio)pyrimidin-4-yl)-2-methoxyacetamide] |
| 16.7 | 13.1 | – | – | C=C(C)C(=O)Nc1ccnc(Sc2c(C)nc(N3CCN(C)CC3)nc2C)n1 [YK88, N-(2-(4,6-dimethyl-2-(4-methylpiperazin-1-yl)pyrimidin-5-ylthio)pyrimidin-4-yl)methacrylamide] |
| 1.8 | 4.8 | – | – | C=CC(=O)Nc1ccnc(Sc2c(C)nc(N3CCN(C)CC3)nc2C)n1 [YK85, N-(2-(4,6-dimethyl-2-(4-methylpiperazin-1-yl)pyrimidin-5-ylthio)pyrimidin-4-yl)acrylamide] |
| 9.9 | – | – | – | COc1nc(N2CCOCC2)nc(OC)c1Sc1cccc(NC(=O)C2CC2)c1 [PDP6, N-(3-(4,6-dimethoxy-2-morpholinopyrimidin-5-ylthio)phenyl)cyclopropanecarboxamide] |
| 25.8 | 20.1 | 27.1 | – | Cc1nc(N2CCN(C)CC2)nc(C)c1Sc1nccc(NC(=O)C2CC2)n1 [YK90, N-(2-(4,6-dimethyl-2-(4-methylpiperazin-1-yl)pyrimidin-5-ylthio)pyrimidin-4-yl)cyclopropanecarboxamide] |
| 16.5 | 11.4 | – | – | C=CC(=O)Nc1cccc(Sc2c(OC)nc(N3CCOCC3)nc2OC)c1 [PDP3, N-(3-(4,6-dimethoxy-2-morpholinopyrimidin-5-ylthio)phenyl)acrylamide] |
| > 100 | > 100 | – | – | COc1nc(N2CCCC2)nc(OC)c1Sc1nccc(NC(=O)C2CC2)n1 [YK110, N-(2-(4,6-dimethoxy-2-(pyrrolidin-1-yl)pyrimidin-5-ylthio)pyrimidin-4-yl)cyclopropanecarboxamide] |
| 11.6 | 1.9 | – | – | C=CC(=O)Nc1ccnc(Sc2c(OC)nc(N3CCOCC3)nc2OC)n1 [YK73, N-(2-(4,6-dimethoxy-2-morpholinopyrimidin-5-ylthio)pyrimidin-4-yl)acrylamide] |
| 47.9 | – | – | – | CCC(=O)Nc1cccc(Sc2c(OC)nc(N3CCN(CCOCCOCCOCCOC(=O)CCCCC4SCC5NC(=O)NC54)CC3)nc2OC)c1 (stereo not shown) [YK142, 2-(2-(2-(2-(4-(4,6-dimethoxy-5-(3-propionamidophenylthio)pyrimidin-2-yl)piperazin-1-yl)ethoxy)ethoxy)ethoxy)ethyl 5-(2-oxohexahydro-1H-thieno[3,4-d]imidazol-4-yl)pentanoate] |
| > 100 | > 100 | – | – | CCC(=O)Nc1cccc(Sc2c(OC)nc(N3CCOCC3)nc2OC)c1 [PDP4, N-(3-(4,6-dimethoxy-2-morpholinopyrimidin-5-ylthio)phenyl)propionamide] |
| 18.1 | – | – | – | C=C(C)C(=O)Nc1cccc(Sc2c(OC)nc(N3CCOCC3)nc2OC)c1 [PDP5, N-(3-(4,6-dimethoxy-2-morpholinopyrimidin-5-ylthio)phenyl)methacrylamide] |

| IC50 ([1]; Homo sapiens, SK-BR-3, 72 h) [µM] | IC50 ([2]; Homo sapiens, Kasumi 1, 72 h) [µM] | IC50 ([2]; 72 h) [µM] | IC50 ([1]; 72 h) [µM] | SMILES |
| --- | --- | --- | --- | --- |
| 37.3 | 30.5 | 25.4 | – | COc1nc(N2CCN(C)CC2)nc(OC)c1Sc1cccc(N)c1 [YK133, 3-(4,6-dimethoxy-2-(4-methylpiperazin-1-yl)pyrimidin-5-ylthio)aniline] |
| 20.7 | 15 | – | – | C/C=C/C(=O)Nc1cccc(Sc2c(OC)nc(N3CCN(C)CC3)nc2OC)c1 [YK131, (E)-N-(3-(4,6-dimethoxy-2-(4-methylpiperazin-1-yl)pyrimidin-5-ylthio)phenyl)but-2-enamide] |
| 4.3 | 42.2 | – | – | C=CC(=O)Nc1ccnc(Sc2c(OC)nc(N3CCCC3)nc2OC)n1 [YK74, N-(2-(4,6-dimethoxy-2-(pyrrolidin-1-yl)pyrimidin-5-ylthio)pyrimidin-4-yl)acrylamide] |
| 6.8 | 7.7 | 9.9 | – | C=CC(=O)Nc1cccc(Sc2c(OC)nc(N3CCN(C)CC3)nc2OC)c1 [YK129, N-(3-(4,6-dimethoxy-2-(4-methylpiperazin-1-yl)pyrimidin-5-ylthio)phenyl)acrylamide] |
| 18.3 | – | – | – | CCC(=O)Nc1cccc(Sc2c(OC)nc(N3CCN(C)CC3)nc2OC)c1 [YK130, N-(3-(4,6-dimethoxy-2-(4-methylpiperazin-1-yl)pyrimidin-5-ylthio)phenyl)propionamide] |
| – | – | 7.7 | 17.8 | C=C(C)C(=O)Nc1cccc(Sc2c(OC)nc(N3CCN(C)CC3)nc2OC)c1 [YK132, N-(3-(4,6-dimethoxy-2-(4-methylpiperazin-1-yl)pyrimidin-5-ylthio)phenyl)methacrylamideN-(3-(4,6-dimethoxy-2-(4-methylpiperazin-1-yl)pyrimidin-5-ylthio)phenyl)methacrylamide] |
| – | 48.3 | – | – | COc1nc(N2CCCC2)nc(OC)c1Sc1nccc(NC(C)=O)n1 [YK66, N-(2-(4,6-dimethoxy-2-(pyrrolidin-1-yl)pyrimidin-5-ylthio)pyrimidin-4-yl)acetamide] |
| – | 25.2 | – | – | COc1nc(N2CCCC2)nc(OC)c1Sc1nccc(N)n1 [YK70, 2-(4,6-dimethoxy-2-(pyrrolidin-1-yl)pyrimidin-5-ylthio)pyrimidin-4-amine] |
| – | > 100 | – | – | CCC(=O)Nc1cc(N)nc(Sc2c(OC)nc(N3CCOCC3)nc2OC)n1 [YK15, N-(6-amino-2-(4,6-dimethoxy-2-morpholinopyrimidin-5-ylthio)pyrimidin-4-yl)propionamide] |
| – | 16 | – | – | COc1nc(N2CCN(C)CC2)nc(OC)c1Sc1nc(N)cc(NC(C)=O)n1 [YK53, N-(6-amino-2-(4,6-dimethoxy-2-(4-methylpiperazin-1-yl)pyrimidin-5-ylthio)pyrimidin-4-yl)acetamide] |
| – | 16 | – | – | C/C=C/C(=O)Nc1ccnc(Sc2c(C)nc(N3CCN(C)CC3)nc2C)n1 [YK87, (E)-N-(2-(4,6-dimethyl-2-(4-methylpiperazin-1-yl)pyrimidin-5-ylthio)pyrimidin-4-yl)but-2-enamide] |
| – | > 100 | – | – | CCCCN1CCN(c2nc(OC)c(Sc3nc(N)cc(N)n3)c(OC)n2)CC1 [YK25, 2-(2-(4-butylpiperazin-1-yl)-4,6-dimethoxypyrimidin-5-ylthio)pyrimidine-4,6-diamine] |
| – | 6.3 | – | – | CCCCCCCC(=O)Nc1cc(N)nc(Sc2c(OC)nc(N3CCN(C)CC3)nc2OC)n1 [YK20, N-(6-amino-2-(4,6-dimethoxy-2-(4-methylpiperazin-1-yl)pyrimidin-5-ylthio)pyrimidin-4-yl)octanamide] |
| – | 54.2 | – | – | COc1nc(N2CCOCC2)nc(OC)c1Sc1nccc(N)n1 [YK69, 2-(4,6-dimethoxy-2-morpholinopyrimidin-5-ylthio)pyrimidin-4-amine] |
| – | 8.8 | 9 | – | CCC(=O)Nc1cccc(Sc2c(C)nc(N3CCNCC3)nc2C)c1 [YK146, N-(3-(4,6-dimethyl-2-(piperazin-1-yl)pyrimidin-5-ylthio)phenyl)propionamide] |
| – | > 100 | – | – | CCOc1nc(N2CCOCC2)nc(OCC)c1Sc1nc(N)cc(NC(=O)c2ccco2)n1 [YK49, N-(6-amino-2-(4,6-diethoxy-2-morpholinopyrimidin-5-ylthio)pyrimidin-4-yl)furan-2-carboxamide] |
| – | 15.7 | – | – | COc1nc(N2CCOCC2)nc(OC)c1Sc1nccc(NC(C)=O)n1 [YK65, N-(2-(4,6-dimethoxy-2-morpholinopyrimidin-5-ylthio)pyrimidin-4-yl)acetamide] |
| – | 94.4 | – | – | COc1nc(N)nc(OC)c1Sc1nccc(NC(C)=O)n1 [YK61, N-(2-(2-amino-4,6-dimethoxypyrimidin-5-ylthio)pyrimidin-4-yl)acetamide] |
